# From US20210323977A1, “PYRROLIDINYL AMIDE COMPOUNDS FOR THE TREATMENT OF AUTOIMMUNE DISEASE” (Hoffmann-La Roche Inc., priority 2018, published 2021)
# Molecular target: T1, human TLR7 (Homo sapiens, UniProt Q9NYK1)
# T1 sequence (Q9NYK1 27-1049): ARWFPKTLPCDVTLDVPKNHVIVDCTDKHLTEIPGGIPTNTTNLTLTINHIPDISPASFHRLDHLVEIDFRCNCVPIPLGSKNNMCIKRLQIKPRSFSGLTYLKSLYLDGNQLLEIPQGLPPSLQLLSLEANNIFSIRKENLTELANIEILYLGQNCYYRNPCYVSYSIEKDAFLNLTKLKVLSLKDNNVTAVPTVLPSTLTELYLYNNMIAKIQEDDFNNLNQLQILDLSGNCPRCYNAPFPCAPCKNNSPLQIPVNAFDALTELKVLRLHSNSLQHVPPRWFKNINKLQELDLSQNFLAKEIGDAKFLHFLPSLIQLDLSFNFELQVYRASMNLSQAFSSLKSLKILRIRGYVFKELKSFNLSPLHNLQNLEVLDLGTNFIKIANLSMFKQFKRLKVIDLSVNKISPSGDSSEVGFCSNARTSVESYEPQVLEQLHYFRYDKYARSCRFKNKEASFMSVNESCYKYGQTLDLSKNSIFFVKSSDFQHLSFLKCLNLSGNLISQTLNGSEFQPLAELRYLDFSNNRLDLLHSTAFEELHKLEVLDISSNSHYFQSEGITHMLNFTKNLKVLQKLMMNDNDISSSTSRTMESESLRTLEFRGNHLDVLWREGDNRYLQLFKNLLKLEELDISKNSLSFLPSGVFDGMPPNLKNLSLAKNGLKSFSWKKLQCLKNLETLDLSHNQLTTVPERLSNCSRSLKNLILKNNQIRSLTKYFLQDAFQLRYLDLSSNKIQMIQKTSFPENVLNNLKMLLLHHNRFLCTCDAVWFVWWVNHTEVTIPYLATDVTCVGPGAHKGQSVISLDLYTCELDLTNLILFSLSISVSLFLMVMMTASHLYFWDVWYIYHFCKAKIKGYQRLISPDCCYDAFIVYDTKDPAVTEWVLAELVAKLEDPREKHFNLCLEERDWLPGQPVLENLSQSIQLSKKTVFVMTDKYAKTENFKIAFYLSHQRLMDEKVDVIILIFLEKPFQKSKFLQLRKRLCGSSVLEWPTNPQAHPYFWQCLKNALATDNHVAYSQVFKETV
# Assay: HEK293-Blue-hTLR-7 cells assay
# Type: cell-based
# Settings: HEK293-Blue-hTLR7 cells, SEAP reporter, R848 stimulation, 20 hrs
# Source text: HEK293-Blue-hTLR-7 Cells Assay:
# A stable HEK293-Blue-hTLR-7 cell line was purchased from InvivoGen (Cat. #: hkb-htlr7, San Diego, Calif., USA). These cells were originally designed for studying the stimulation of human TLR7 by monitoring the activation of NF-κB. A SEAP (secreted embryonic alkaline phosphatase) reporter gene was placed under the control of the IFN-β minimal promoter fused to five NF-κB and AP-1-binding sites. The SEAP was induced by activating NF-κB and AP-1 via stimulating HEK-Blue hTLR7 cells with TLR7 ligands. Therefore the reporter expression was declined by TLR7 antagonist under the stimulation of a ligand, such as R848 (Resiquimod), for incubation of 20 hrs. The cell culture supernatant SEAP reporter activity was determined using QUANTI-Blue™ kit (Cat. #: rep-qb1, Invivogen, San Diego, Ca, USA) at a wavelength of 640 nm, a detection medium that turns purple or blue in the presence of alkaline phosphatase.
# HEK293-Blue-hTLR7 cells were incubated at a density of 250,000˜450,000 cells/mL in a volume of 170 μL in a 96-well plate in Dulbecco's Modified Eagle's medium (DMEM) containing 4.5 g/L glucose, 50 U/mL penicillin, […], […], 2 mM L-glutamine, 10% (v/v) heat-inactivated fetal bovine serum with addition of 20 sL test compound in a serial dilution in the presence of final DMSO at 1% and 10 μL of 20 uM R848 in above DMEM, perform incubation under 37° C. in a CO2 incubator for 20 hrs. Then 20 μL of the supernatant from each well was incubated with 180 sL Quanti-blue substrate solution at 37° C. for 2 hrs and the absorbance was read at 620-655 nm using a spectrophotometer. The signalling pathway that TLR7 activation leads to downstream NF-κB activation has been widely accepted, and therefore similar reporter assay was modified for evaluating TLR7 antagonist.
row,SMILES,IC50 [nM]
1,"CN1CCC(NC(=O)[C@@H]2CN(c3ccc(C#N)c4ncccc34)C[C@H]2C2CC2)CC1 (relative stereo) [Example 14, Trans-1-(8-cyano-5-quinolyl)-4-cyclopropyl-N-(1-methyl-4-piperidyl)pyrrolidine-3-carboxamide]",20
2,"CN1CCC(NC(=O)[C@@H]2CN(c3ccc(C#N)c4ncccc34)C[C@H]2C(F)(F)F)CC1 (relative stereo) [Example 17, Trans-1-(8-cyano-5-quinolyl)-N-(1-methyl-4-piperidyl)-4-(trifluoromethyl)pyrrolidine-3-carboxamide]",22
3,C[C@@H]1CN(c2ccc(C#N)c3ncccc23)C[C@H]1C(=O)NC1CCN(C)CC1 (relative stereo) [Example 28],39
4,"CC[C@@H]1CN(c2ccc(C#N)c3ncccc23)C[C@H]1C(=O)NC1CCN(C)CC1 (relative stereo) [Example 29, Trans-1-(8-cyano-5-quinolyl)-4-ethyl-N-(1-methyl-4-piperidyl)pyrrolidine-3-carboxamide]",40
5,"C[C@@H]1CN(c2ccc(C#N)c3ncccc23)C[C@H]1C(=O)N1CCC2(CCNCC2)CC1 (relative stereo) [Example 32, Trans-5-[3-(3,9-diazaspiro[5.5]undecane-3-carbonyl)-4-methyl-pyrrolidin-1-yl]quinoline-8-carbonitrile]",44
6,"CC(C)[C@@H]1CN(c2ccc(C#N)c3ncccc23)C[C@H]1C(=O)NC1CCN(C)CC1 (relative stereo) [Example 37, Trans-1-(8-cyano-5-quinolyl)-4-isopropyl-N-(1-methyl-4-piperidyl)pyrrolidine-3-carboxamide]",59
7,"CN1CCC(NC(=O)[C@@H]2CN(c3ccc(C#N)c4ncccc34)C[C@H]2C(F)F)CC1 (relative stereo) [Example 40, Trans-1-(8-cyano-5-quinolyl)-4-(difluoromethyl)-N-(1-methyl-4-piperidyl)pyrrolidine-3-carboxamide]",79
8,"N[C@@H]1CCC[C@H](NC(=O)C2CN(c3ccc(C(F)(F)F)c4nccnc34)CC23CC3)C1 (relative stereo) [Example 43, Cis-N-(3-aminocyclohexyl)-5-[8-(trifluoromethyl)quinoxalin-5-yl]-5-azaspiro[2.4]heptane-7-carboxamide]",81
9,"CN1CCC(NC(=O)[C@@H]2CN(c3ccc(Cl)c4ncccc34)C[C@H]2C(F)(F)F)CC1 (relative stereo) [Example 46, Trans-1-(8-chloro-5-quinolyl)-N-(1-methyl-4-piperidyl)-4-(trifluoromethyl)pyrrolidine-3-carboxamide]",108
10,"C[C@@H]1CN(c2ccc(C#N)c3ncccc23)C[C@H]1C(=O)N1CCC2(CCNC2)C1 (relative stereo) [Example 53, Trans-5-[3-(2,7-diazaspiro[4.4]nonane-2-carbonyl)-4-methyl-pyrrolidin-1-yl]quinoline-8-carbonitrile]",226
11,"CN1CCC(NC(=O)C2CN(c3ccc(C#N)c4nccnc34)CC23CC3)CC1 (single isomer, unassigned) [Example 7A, 5-(8-Cyanoquinoxalin-5-yl)-N-(1-methyl-4-piperidyl)-5-azaspiro[2.4]heptane-7-carboxamide]",4
12,"CN1CCC(NC(=O)C2CN(c3ccc(C#N)c4nccnc34)CC23CC3)CC1 (single isomer, unassigned) [Example 7B, 5-(8-Cyanoquinoxalin-5-yl)-N-(1-methyl-4-piperidyl)-5-azaspiro[2.4]heptane-7-carboxamide]",6
13,"N#Cc1ccc(N2CC(C(=O)NC3CCCNCC3)C(C(F)(F)F)C2)c2cccnc12 (single isomer, unassigned) [Example 30A, N-(azepan-4-yl)-1-(8-cyano-5-quinolyl)-4-(trifluoromethyl)pyrrolidine-3-carboxamide]",41
14,"N#Cc1ccc(N2CC(C(=O)NC3CCCNCC3)C(C(F)(F)F)C2)c2cccnc12 (single isomer, unassigned) [Example 30B, N-(azepan-4-yl)-1-(8-cyano-5-quinolyl)-4-(trifluoromethyl)pyrrolidine-3-carboxamide]",50
15,"CN1CCC(NC(=O)C2CN(c3ccc(C#N)c4ncccc34)CC23CC3)CC1 (single isomer, unassigned) [Example 41A, 5-(8-Cyano-5-quinolyl)-N-(1-methyl-4-piperidyl)-5-azaspiro[2.4]heptane-7-carboxamide]",79
16,"C[C@@H]1CN(c2ccc(C#N)c3ncccc23)C[C@H]1C(=O)NC1CCCNCC1 (single isomer, unassigned) [Example 52A, Trans-N-(azepan-4-yl)-1-(8-cyano-5-quinolyl)-4-methyl-pyrrolidine-3-carboxamide]",203
17,"C[C@@H]1CN(c2ccc(C#N)c3ncccc23)C[C@H]1C(=O)NC1CCCNCC1 (single isomer, unassigned) [Example 52B, Trans-N-(azepan-4-yl)-1-(8-cyano-5-quinolyl)-4-methyl-pyrrolidine-3-carboxamide]",219
18,"N#Cc1ccc(N2CC(C(=O)NC[C@H]3CNCCO3)C3(CC3)C2)c2nccnc12 (single isomer, unassigned) [Example 70A]",19
19,"N#Cc1ccc(N2CC(C(=O)NC[C@H]3CNCCO3)C3(CC3)C2)c2nccnc12 (single isomer, unassigned) [Example 70B]",233
20,"N#Cc1ccc(N2CC(C(=O)NC[C@@H]3CNCCO3)C3(CC3)C2)c2nccnc12 (single isomer, unassigned) [Example 71A]",21
21,"N#Cc1ccc(N2CC(C(=O)NC[C@@H]3CNCCO3)C3(CC3)C2)c2nccnc12 (single isomer, unassigned) [Example 71B]",202
22,"CN1CCC(NC(=O)[C@H]2CN(c3ccc(C#N)c4nccnc34)C[C@@H]2C(F)(F)F)CC1 [Example 1, (3R,4R)-1-(8-cyanoquinoxalin-5-yl)-N-(1-methyl-4-piperidyl)-4-(trifluoromethyl) pyrrolidine-3-carboxamide]",3
23,"CN1CCC(NC(=O)[C@H]2CN(c3ccc(C(F)(F)F)c4nccnc34)C[C@@H]2C(F)(F)F)CC1 [Example 2, (3R,4R)—N-(1-methyl-4-piperidyl)-4-(trifluoromethyl)-1-[8-(trifluoromethyl)quinoxalin-5-yl]pyrrolidine-3-carboxamide]",4
24,"C[C@H]1CN(c2ccc(C#N)c3nccnc23)C[C@@H]1C(=O)NC1CCN(C)CC1 [Example 3, (3R,4R)-1-(8-cyanoquinoxalin-5-yl)-4-methyl-N-(1-methyl-4-piperidyl)pyrrolidine-3-carboxamide]",4
25,"CN1CCC(NC(=O)[C@H]2CN(c3ccc(C#N)c4ncccc34)C[C@@H]2C(F)(F)F)CC1 [Example 4, (3R,4R)-1-(8-cyano-5-quinolyl)-N-(1-methyl-4-piperidyl)-4-(trifluoromethyl)pyrrolidine-3-carboxamide]",9
26,"C[C@H]1CN(c2ccc(C(F)(F)F)c3nccnc23)C[C@@H]1C(=O)NC1CCN(C)CC1 [Example 5, (3R,4R)-4-methyl-N-(1-methyl-4-piperidyl)-1-[8-(trifluoromethyl)quinoxalin-5-yl]pyrrolidine-3-carboxamide]",8
